Experimental data published in US10307383B2, “Cosmetic composition for preventing or ameliorating hypersensitive skin comprising cedrol or derivatives thereof, or pharmaceutically acceptable salts thereof” (University of Seoul Industry Cooperation Foundation, priority 2017, dated 2019).

Tests used:
[1] = test system: psoriasis induced mice (imiquimod); assay: Keratosis reduction effect in the psoriasis induced mice (PASI); type: in vivo, Balb/c mouse; conditions: day 7, 100 mg/kg oral once a day, IMQ applied; IMQ alone 3.8
Experimental: (§1) To investigate the delayed effect of cedrol, cedryl acetate, and alpha-cedrene on the development of psoriasis, total 5 groups of mice were prepared (8 mice/group). First, the hair of the entire back of the 8-week-old male Balb/c mouse whose immune system was weakened was removed by using a hair clipper (Kimlaube Hair pen 325,327, Rikei, Korea). In the middle of the shaved back of the mouse, 2 mg of imiquimod (3M Health Care Limited, England) was applied in the area of 2 cm×1.5 cm and also 1,125 mg of imiquimod was applied on the right ear of the mouse every day once a day to induce psoriasis.
(§2) The mice prepared above were divided into the distilled water treated group (IMQ), the cedrol treated group (C), the cedryl acetate treated group (CA), and the alpha-cedrene treated group (CE). At this time, the mice were orally treated with distilled water at the concentration of 200 μl/mouse and cedrol or its derivatives at the concentration of 200 μl/mouse (100 mg/kg). The day when distilled water or the compound administration started was recorded as day 0 and the administration was performed once a day for a week, during which photo-recording was performed every day (FIGS. 2A˜2D). In the meantime, instead of applying imiquimod, 40 mg of vaseline was applied on the back of the control group (CONT) and 22.5 mg of vaseline was applied on the right ear of the control group. And the control group was orally administered with distilled water (200 μl/mouse).
Then, the psoriasis area severity index (PASI) was calculated to confirm the reduction effect of the compounds on keratosis. Keratosis is a symptom of psoriasis. The application of IMQ can induce keratosis.

[2] = test system: psoriasis induced mice (imiquimod); assay: Recovery effect on ear thickness of the psoriasis induced mice after termination of imiquimod (PASI); type: in vivo, Balb/c mouse
Experimental: (§3) Imiquimod was applied to the psoriasis induced mice which had developed psoriasis for a week in Example <2-1>. The application was stopped 8 days after the application began. The groups CON and IMQ were treated with distilled water, the group C was treated with cedrol, the group CA was treated with cedryl acetate, the group CE was treated with alpha-cedrene alone at the concentration of 100 mg/kg in 200 μl, every day via oral-administration. Day 8 was the day the imiquimod application was stopped, since then the compounds were administered for 1 week once a day, during which photo-recording was performed (FIGS. 13A˜13D).
The psoriasis area severity index (Psoriasis Area Severity Index, PASI) was given from the point 1 to point 4, based on which the recovery effect on the ear thickness was evaluated.

[3] = test system: psoriasis induced mice (imiquimod); assay: Recovery effect on skin flair of the psoriasis induced mice after termination of imiquimod (PASI); type: in vivo, Balb/c mouse; conditions: day 8 (imiquimod application stopped), 100 mg/kg oral
Experimental: as §3
(§4) Then, the psoriasis area severity index (Psoriasis Area Severity Index, PASI) was calculated, based on which the recovery effect on keratosis was evaluated.

[4] = test system: psoriasis induced mice (imiquimod); assay: Skin wrinkle reduction effect in the psoriasis induced mice; type: in vivo, Balb/c mouse; conditions: IMQ applied, 8 mice/group
Experimental: as §1, §2
The psoriasis induced mice orally administered with cedrol, cedryl acetate, and alpha-cedrene of Example <2-1> were observed by the naked eye, and the number of mice showing skin wrinkles was counted. Skin wrinkle is a symptom of psoriasis, and when IMQ is applied, skin keratinization increases and accordingly skin wrinkles are formed as time goes by.

[5] = test system: psoriasis induced mice (imiquimod); assay: Recovery effect on hemorrhage spots of the psoriasis induced mice; type: in vivo, Balb/c mouse
Experimental: as §3
The psoriasis induced mice orally administered with cedrol, cedryl acetate, and alpha-cedrene of Example <3-1> were observed by the naked eye, and the number of mice showing the recovery of hemorrhage spots was counted.

[6] = test system: psoriasis induced mice (imiquimod); assay: Skin flair reduction effect in the psoriasis induced mice (PASI); type: in vivo, Balb/c mouse; conditions: day 7, 100 mg/kg oral once a day, IMQ applied; IMQ alone 4.00
Experimental: as §1, §2
Then, the psoriasis area severity index (PASI) was calculated to confirm the reduction effect of the compounds on skin flair. Skin flair is a symptom of psoriasis. The application of IMQ can induce skin flair.

[7] = test system: psoriasis induced mice (imiquimod); assay: Accelerating effect on hair regrowth of the psoriasis induced mice; type: in vivo, Balb/c mouse; conditions: 8 mice/group
Experimental: as §3
The psoriasis induced mice orally administered with cedrol, cedryl acetate, and alpha-cedrene of Example <3-1> were observed by the naked eye, and the number of mice showing hair regrowth was counted.

[8] = test system: psoriasis induced mice (imiquimod); assay: Skin pain reduction effect in the psoriasis induced mice (back pinch, mice counted); type: in vivo, Balb/c mouse; conditions: IMQ applied, 8 mice/group
Experimental: as §1, §2
When the back of the psoriasis induced mice orally administered with cedrol, cedryl acetate, and alpha-cedrene of Example <2-1> was pinched, those mice who sound painfully with strong rejection were counted. Skin pain is a symptom of psoriasis, and when IMQ is applied, skin pain becomes stronger as time goes by.

IL-17A expression = assay: IL-17A inhibition assay in IL-17 luciferase-(LUCPorter) stable reporter cell line; conditions: for Inhibition of IL-17A expression (%) Experiment-2 / Inhibition of IL-17A expression (%) Experiment-3: 6 hours; for expression of IL-17A (luciferase units): control group 2,582 units
[9] = test system: psoriasis induced mice (imiquimod); assay: Recovery effect on skin wrinkles of the psoriasis induced mice; type: in vivo, Balb/c mouse
Experimental: as §3
The psoriasis induced mice orally administered with cedrol, cedryl acetate, and alpha-cedrene of Example <3-1> were observed by the naked eye, and the number of mice showing the recovery of skin wrinkles was counted.

[10] = test system: psoriasis induced mice (imiquimod); assay: Recovery effect on keratosis of the psoriasis induced mice after termination of imiquimod (PASI); type: in vivo, Balb/c mouse
Experimental: as §3, §4

[11] = day 8 (imiquimod application stopped), 100 mg/kg oral
[12] = day 8, 100 mg/kg oral, 8 mice/group
[13] = day 16, 100 mg/kg oral after termination of imiquimod
[14] = Homo sapiens, read-out: Average Inhibition (%)

SMILES: CC(=O)O[C@]1(C)CC[C@@]23C[C@@H]1C(C)(C)[C@@H]2CC[C@H]3C [cedryl acetate, Cedryl acetate]
- keratosis mean point (PASI) [1]: 3.08 point
- ear thickness recovery effect, comparison in words ([2]; 100 mg/kg oral after termination of imiquimod): strongest recovery effect
- PASI reflecting the ear thickness [2, 11]: 4.0±0.6 point
- ear thickness recovered to normal (in words) ([2]; from day 15, 100 mg/kg oral after termination of imiquimod): all 8 mice were recovered to normal
- PASI reflecting skin flair [3]: 4.0±0.0 point
- number of mice showing skin wrinkles ([4]; day 5, 100 mg/kg oral): one
- number of mice showing skin wrinkles ([4]; day 7, 100 mg/kg oral, IMQ alone 3): one
- number of mice showing hemorrhage spots [5, 12]: 6 mice
- number of mice showing hemorrhage spots [5, 13]: no mouse
- skin flair mean point (PASI) [6]: 3.16 point
- number of mice showing hair regrowth ([7]; day 14, 100 mg/kg oral after termination of imiquimod): one
- number of mice showing hair regrowth ([7]; day 16, 100 mg/kg oral after termination of imiquimod, distilled water 5): 7 mice
- number of mice showing skin pain ([8]; day 6, 100 mg/kg oral): one
- number of mice showing skin pain ([8]; day 7, 100 mg/kg oral, IMQ alone 5): no mice
- expression of IL-17A, % by the control (IL-17A expression; 10 μg/ml): 77 % by the control
- Inhibition of IL-17A expression (%) Experiment-2 (IL-17A expression; 10 μg/ml): 15%
- Inhibition of IL-17A expression (%) Experiment-3 (IL-17A expression; 10 μg/ml): 23%
- expression of IL-17A (luciferase units) (IL-17A expression; 10 μg/ml): 1,994±304 units
- expression of IL-17A, % by the control (IL-17A expression; 100 μg/ml): 64 % by the control
- Inhibition of IL-17A expression (%) Experiment-2 (IL-17A expression; 100 μg/ml): 27%
- Inhibition of IL-17A expression (%) Experiment-3 (IL-17A expression; 100 μg/ml): 36%
- expression of IL-17A (luciferase units) (IL-17A expression; 100 μg/ml): 1,648±138 units
- expression of IL-17A, % by the control (IL-17A expression; 1,000 μg/ml): 10 % by the control
- Inhibition of IL-17A expression (%) Experiment-2 (IL-17A expression; 1000 μg/ml): 74%
- Inhibition of IL-17A expression (%) Experiment-3 (IL-17A expression; 1000 μg/ml): 90%
- expression of IL-17A (luciferase units) (IL-17A expression; 1,000 μg/ml): 257±6 units
- suppression of the expression of IL-17A (in words) (IL-17A expression; 10, 100, or 1,000 μg/ml): dose-dependently
- inhibition at 10 µg/mL (IL-17A expression; [14]): 19%
- inhibition at 100 µg/mL (IL-17A expression; [14]): 31.5%
- inhibition at 1000 µg/mL (IL-17A expression; [14]): 82%
- IC50 (IL-17A expression; Homo sapiens, read-out: IC50 to inhibit the IL-17A expression by 50%): 608 µg/mL
- IL-17A expression inhibition activity, comparison in words (IL-17A expression; order by IC50 of Table 3): strongest IL-17A expression inhibition activity
- number of mice showing skin wrinkles [9, 12]: 3 mice
- number of mice showing skin wrinkles [9, 13]: no mouse
- PASI reflecting keratosis [10, 11]: 4.0±0.6 point
- PASI reflecting keratosis ([10]; day 14, 100 mg/kg oral once a day after termination of imiquimod): 1.0±0.0 point
